Read-outs that look alike come from different tables or passages of the source. Some results are limits rather than exact numbers.

In general, IC50 refers to the concentration that inhibits the measured activity by half.

For experiment [1], the target named is T1, GST-tagged human recombinant active B-Raf (Δ1-415) (Homo sapiens, UniProt P15056).
T1 construct: GST; purchased Upstate/Millipore
Briefly: B-Raf kinase activity, IMAP coupled assay (B-Raf/MEK1/ERK2, fluorescence polarization). Type of experiment: biochemical. To be noted: bounds also given as pIC50 (>6, >7, >8); 60 min pre-incubation with compound, ATP 50 μM; read-out: IC50, B-Raf IMAP assay.
From the text: (§1) In another assay the B-Raf kinase activity can be determined by using an IMAP assay (Immobilized Metal Assay for Phosphochemicals-based coupled assay). IMAP is a homogeneous fluorescence polarization (FP) assay based on affinity capture of phosphorylated peptide substrates. IMAP uses fluorescein-labeled peptide substrates that, upon phosphorylation by a protein kinase, bind to so called IMAP nanoparticles, which are derivatized with trivalent metal complexes. Such binding causes a change in the rate of the molecular motion of the peptide, and results in an increase in the FP value observed for the fluorescein label attached to the substrate peptide. In such an assay, B-Raf phosphorylates unactive MEK1. The phosphorylated MEK1 is capable of phosphorylating ERK2, which subsequently phosphorylates the fluorescein-labeled peptide substrate.
Determination of B-Raf Kinase Activity using an IMAP Assay
as §1, with “Inhibition of” for “In another assay the”, “was measured” for “can be determined by”, “Immobilized” for “IMAP assay (Immobilized”, “assay (IMAP).” for “assay).”, “this” for “such an”
Enzymes, substrate and ATP were diluted at all steps in Kinase Reaction buffer (10 mM Tris-HCl, 10 mM MgCl2, 0.01% Tween-20, 0.05% NaN3 pH 7.2, 1 mM DTT). The final volume at the kinase reaction step of the assay in the 384-well plate was 20 μl. The concentrations within brackets are final concentrations in the assay. B-Raf (GST-tagged human recombinant active B-Raf (Δ1-415), Upstate/Millipore; 0.2 U/ml) was pre-incubated with compounds or DMSO (1% final concentration) for 60 minutes at room temperature in the dark. Thereafter, MEK 1 (GST-tagged human recombinant unactive MEK1 (full-length); 64 ng/ml), ERK2 (GST-tagged human recombinant unactive ERK2 (full-length); 600 ng/ml), peptide substrate (Erktide, Molecular Devices; 50 nM) and ATP (50 μM) were added to the wells and the mix was incubated for another 60 minutes at 30° C. in the dark. Then, IMAP progressive binding buffer (75% 1× buffer A, 25% 1× buffer B, 1:900 Progressive Binding Reagent; Molecular Devices) was added followed by an incubation step of 60 minutes at room temperature in the dark. Finally, the FP signal was read on an Envision Multilabel reader (Perkin Elmer).
(In general: Polarisation of emitted light reports the rotation of a fluorescent probe.)

The subject of experiment [2] is phosphorylation of ERK1/2 in A375 cells containing mutant B-Raf (V600E). Briefly: Phospho-ERK FACE assay in A375 (B-Raf mutated) melanoma cell line. It is filed as cell-based. Particulars: Homo sapiens, A-375, A375 cells, 2 hours incubation, read-out: IC50, A375 melanoma phospho-ERK assay. On the procedure:
The B-Raf activity can also be determined in a B-Raf mutated melanoma cell line, such as the A375 cell line. Inhibition of phosphorylation of ERK1/2 can be measured using a Fast Activated Cell-based ELISA (FACE) from Active Motif (Carlsbad, U.S.A., CA). E.g. A375 cells, which are cells containing a mutant form of B-Raf (V600E) and thus contain high levels of phosphorylated ERK, can be incubated with Raf inhibitors. Then cells can be incubated with anti-phospho-ERK antibody and subsequently with horse radish peroxidase (HRP)-labeled secondary antibody. Finally, chemiluminescence reagents can be added, which react with HRP, to give a luminescence signal.
Determination of B-Raf Activity Using a A375 (B-Raf mutated) Melanoma Cell Line (Phospho-ERK FACE Assay)
Inhibition of phosphorylation of ERK1/2 was measured using a Fast Activated Cell-based ELISA (FACE) from Active Motif (Carlsbad, U.S.A., CA). Briefly, A375 cells, which are cells containing a mutant form of B-Raf (V600E) and thus contain high levels of phosphorylated ERK, were incubated for 2 hours with Raf inhibitors. Then, cells were fixed with paraformaldehyde, washed and following quenching and blocking, incubated with anti-phospho-ERK antibody, and as a control, on a separate plate, with ERK antibody. After washing and removal of the primary antibodies, the fixed cells were incubated with horse radish peroxidase (HRP)-labeled secondary antibody. Finally, chemiluminescence reagents were added, which react with HRP, to give a luminescence signal.
Detailed protocol: A375 cells were cultured in DMEM/F12 (Dulbecco's Modified Eagle Medium Nutrient Mixture F-12) (Invitrogen), supplemented with 10% fetal bovine serum (FBS) (Biowhittaker), 100 U/ml penicillin G and 100 μg/ml streptomycin (Gibco). For the phospho ERK assay, cells were seeded at a density of 15,000 cells/well in 100 μl culture medium in 96-well plates and incubated in a humidified atmosphere at 5% CO2 and 37° C. After 24 hours, cells were washed with DMEM/F12 supplemented with 0.1% FBS (assay medium 120 μl of assay medium was added and the plates were incubated overnight in a humidified atmosphere at 5% CO2 and 37° C. The next day, the assay medium was removed and compounds diluted in assay medium were added to the cells. Final DMSO concentration in the assay was 1%. After 2 hours incubation, cells were fixed by replacing the assay medium with 100 μl of 4% formaldehyde (Bio-Connect, Huissen, The Netherlands) in PBS. After 20 minutes of incubation at room temperature, cells were washed three times with 200 μl wash buffer (0.1% (vol/vol) Triton X-100 in PBS from the FACE kit) followed by an incubation of 20 minutes with 100 μl quenching buffer, containing 1% (vol/vol) hydrogen peroxide (Thermo Fisher Scientific) and 0.1% (vol/vol) sodium azide (Sigma-Aldrich) in phosphate-buffered saline. Cells were washed two times with wash buffer, incubated for 1 hour with 100 μl antibody blocking buffer from the kit and washed two times again. 40 μl of diluted antibody against phosphorylated ERK1/2 (1:500 from the FACE kit) was added and incubated overnight at 4° C. The phospho-ERK antibody has been raised against a synthetic phospho-peptide corresponding to residues Thr202 and Tyr204 of human ERK1 and Thr185 and Tyr187 of human ERK2. For the detection of total ERK, antibody against ERK1 and ERK2 (1:500 from the FACE kit) was added. The excessive primary antibody was washed out, and 100 μl diluted HRP-conjugated anti-rabbit IgG (1:2000 from the FACE kit) was added and incubated for 1 hour at room temperature. Secondary antibody was removed and cells were washed 3 times with wash buffer and twice with PBS. 50 μl per well of FACE chemiluminescent working solution was added. Chemiluminescence was measured on an Envision Multilabel reader.

Where [3] appears, read: class given as below 100 nM (pIC50>7).
[4] abbreviates: class between 10 μM and 1 μM (5<pIC50<6).
Where [5] appears, read: between 1 μM and 100 nM (6<pIC50<7).

T1 sequence (P15056 416-766, stated change not applied): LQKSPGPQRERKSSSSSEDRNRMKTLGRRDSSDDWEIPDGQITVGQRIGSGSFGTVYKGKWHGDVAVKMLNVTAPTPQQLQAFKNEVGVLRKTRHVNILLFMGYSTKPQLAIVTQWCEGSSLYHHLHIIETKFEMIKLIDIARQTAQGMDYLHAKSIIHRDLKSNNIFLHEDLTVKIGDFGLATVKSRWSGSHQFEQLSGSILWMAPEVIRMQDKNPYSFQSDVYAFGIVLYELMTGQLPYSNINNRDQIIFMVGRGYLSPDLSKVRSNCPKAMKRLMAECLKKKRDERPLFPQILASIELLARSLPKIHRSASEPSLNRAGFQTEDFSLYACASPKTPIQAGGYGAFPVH

As to `CCNc1cnc2sc(C(=O)Nc3cc(NC(=O)c4cccc(C(C)(C)C#N)c4)ccc3C)cc2n1` [Example 13, N-(5-(3-(2-cyanopropan-2-yl)benzamido)-2-methylphenyl)-2-(ethylamino)thieno[2,3-b]pyrazine-6-carboxamide], the IC50 in experiment [1] and in experiment [2] (setting [3]) was less than 100 nM throughout.
As to `Cc1ccc(NC(=O)c2cccc(C(C)(C)C#N)c2)cc1NC(=O)c1cc2nc(NCCN(C)C)cnc2s1` [Example 14, N-(5-(3-(2-cyanopropan-2-yl)benzamido)-2-methylphenyl)-2-(2-(dimethylamino)ethylamino)thieno[2,3-b]pyrazine-6-carboxamide], the IC50 in experiment [1] was less than 100 nM; in experiment [2] (setting [4]), 1000 to 10000 nM.
For the compound `Cc1ccc(NC(=O)c2cccc(C(C)(C)C#N)c2)cc1NC(=O)c1cc2nc(N(C)C)cnc2s1` [Example 15, N-(5-(3-(2-cyanopropan-2-yl)benzamido)-2-methylphenyl)-2-(dimethylamino)thieno[2,3-b]pyrazine-6-carboxamide], the half-maximal inhibitory concentration (IC50) in experiment [1] is less than 10 nM; in experiment [2] (setting [3]), less than 100 nM.
For `Cc1ccc(NC(=O)c2cccc(C(C)(C)C#N)c2)cc1NC(=O)c1cc2nc(NC(C)C)cnc2s1` [Example 16, N-(5-(3-(2-cyanopropan-2-yl)benzamido)-2-methylphenyl)-2-(isopropylamino)thieno[2,3-b]pyrazine-6-carboxamide] the same measures were less than 100 nM and less than 100 nM.
Regarding `CNc1cnc2sc(C(=O)Nc3cc(NC(=O)c4cccc(C(C)(C)C#N)c4)ccc3C)cc2n1` [Example 17, N-(5-(3-(2-cyanopropan-2-yl)benzamido)-2-methylphenyl)-2-(methylamino)thieno[2,3-b]pyrazine-6-carboxamide], the IC50 is less than 100 nM in experiment [1] and 100 to 1000 nM in experiment [2] (setting [5]).
Regarding `Cc1ccc(NC(=O)c2cccc(C(C)(C)C#N)c2)cc1NC(=O)c1cc2nc(NCc3ccncc3)cnc2s1` [Example 18, N-(5-(3-(2-cyanopropan-2-yl)benzamido)-2-methylphenyl)-2-(pyridin-4-ylmethylamino)thieno[2,3-b]pyrazine-6-carboxamide], the IC50 in experiment [1] was less than 10 nM; in experiment [2] (setting [5]), 100 to 1000 nM.
Take `CC(=O)c1cnc2sc(C(=O)Nc3cc(NC(=O)c4cccc(C(C)(C)C#N)c4)ccc3C)cc2n1` [Example 19, 2-acetyl-N-(5-(3-(2-cyanopropan-2-yl)benzamido)-2-methylphenyl)thieno[2,3-b]pyrazine-6-carboxamide]: the IC50 in experiment [1] is less than 100 nM; in experiment [2] (setting [4]), 1000 to 10000 nM.
Turning to `Cc1ccc(NC(=O)c2cccc(C(C)(C)C#N)c2)cc1NC(=O)c1cc2nc(-c3cccnc3)cnc2s1` [Example 20, N-(5-(3-(2-cyanopropan-2-yl)benzamido)-2-methylphenyl)-2-(pyridin-3-yl)thieno[2,3-b]pyrazine-6-carboxamide], the values for the IC50 in experiment [1] and in experiment [2] (setting [3]) were less than 10 nM and less than 100 nM, respectively.
For `Cc1ccc(NC(=O)c2cccc(C(C)(C)C#N)c2)cc1NC(=O)c1cc2nc(-c3ccncc3)cnc2s1` [Example 21, N-(5-(3-(2-cyanopropan-2-yl)benzamido)-2-methylphenyl)-2-(pyridin-4-yl)thieno[2,3-b]pyrazine-6-carboxamide], in that order: less than 100 nM and less than 100 nM.
On to `Cc1cnc2sc(C(=O)Nc3cc(NC(=O)c4cccc(C(C)(C)C#N)c4)ccc3C)cc2n1` [Example 24, N-(5-(3-(2-cyanopropan-2-yl)benzamido)-2-methylphenyl)-2-methylthieno[2,3-b]pyrazine-6-carboxamide], for which the IC50 in experiment [1] is less than 10 nM; in experiment [2] (setting [5]) it was 100 to 1000 nM.
Turning to `Cc1ccc(NC(=O)c2ccnc(N3CCCC3)c2)cc1NC(=O)c1cc2nccnc2s1` [Example 26, N-(2-methyl-5-(2-(pyrrolidin-1-yl)isonicotinamido)phenyl)thieno[2,3-b]pyrazine-6-carboxamide], the IC50 was less than 100 nM in experiment [1] and 1000 to 10000 nM in experiment [2] (setting [4]).
`Cc1ccc(NC(=O)c2cccc(C(C)(C)C#N)c2)cc1NC(=O)c1cc2nccnc2s1` [Example 27, N-(5-(3-(2-cyanopropan-2-yl)benzamido)-2-methylphenyl)thieno[2,3-b]pyrazine-6-carboxamide]: the results for the 50% inhibitory concentration (IC50) in experiment [1] and in experiment [2] (setting [5]) were less than 10 nM and 100 to 1000 nM, respectively.
For the compound `COc1ccc(C(=O)Nc2ccc(C)c(NC(=O)c3cc4nccnc4s3)c2)cc1C(F)(F)F` [Example 28, N-(5-(4-methoxy-3-(trifluoromethyl)benzamido)-2-methylphenyl)thieno[2,3-b]pyrazine-6-carboxamide], the 50% inhibitory concentration (IC50) was less than 100 nM in experiment [1] and 100 to 1000 nM in experiment [2] (setting [5]).
`Cc1ccc(NC(=O)c2cccc(C3(C#N)CC3)c2)cc1NC(=O)c1cc2nccnc2s1` [Example 29, N-(5-(3-(1-cyanocyclopropyl)benzamido)-2-methylphenyl)thieno[2,3-b]pyrazine-6-carboxamide]: the IC50 in experiment [1] was less than 10 nM; in experiment [2] (setting [5]), 100 to 1000 nM.
For `Cc1ccc(NC(=O)c2cc(C(C)(C)C)n[nH]2)cc1NC(=O)c1cc2nccnc2s1` [Example 30, N-(5-(3-tert-butyl-1H-pyrazole-5-carboxamido)-2-methylphenyl)thieno[2,3-b]pyrazine-6-carboxamide], in that order: less than 100 nM and 100 to 1000 nM.

Values taken from patent US8669256B2, “Substituted thieno[2,3-b]pyrazine compounds as modulators of B-Raf kinase activity” (Merck Sharp & Dohme B.V., priority 2010, dated 2014).
